The text below walks through data of PMC7883873, “Discovery of New Catalytic Topoisomerase II Inhibitors for Anticancer Therapeutics” (Frontiers in Oncology, 2021).

In series [1] the target is T1, TOP2A (Homo sapiens, UniProt P11388). The series is described as follows: Relaxation and K-DNA decatenation assays of candidates and T60 derivatives (SAR). The conditions noted are these: compared with T60. Also on record: full-length human TOP2A and TOP2B protein (TopoGEN and Inspiralis respectively); purchased TopoGEN TG1001 (human TOP2 assay kit). In kind it is biochemical. As for the experimental part: (§1) The human TOP2 assay kit (#TG1001, TopoGEN, Buena Vista, CO) and TOP2B (HTB205, Inspiralis, UK) were used for K-DNA decatenation assays. […] The reaction was incubated at 37C for 2 h after which 4 µl stop solution (5× buffer is 5% Sarkosyl, 0.125% bromophenol blue, 25% glycerol) was added. The reaction was resolved by electrophoresis on a 0.8% agarose gel at 60 V and stained with 0.5 µg/ml ethidium bromide for 15 min. DNA bands were visualized using a gel imager (Gel Doc™ EZ System) and quantified using the Image Studio™ Lite Quantification Software.
T1 sequence (P11388 whole entry): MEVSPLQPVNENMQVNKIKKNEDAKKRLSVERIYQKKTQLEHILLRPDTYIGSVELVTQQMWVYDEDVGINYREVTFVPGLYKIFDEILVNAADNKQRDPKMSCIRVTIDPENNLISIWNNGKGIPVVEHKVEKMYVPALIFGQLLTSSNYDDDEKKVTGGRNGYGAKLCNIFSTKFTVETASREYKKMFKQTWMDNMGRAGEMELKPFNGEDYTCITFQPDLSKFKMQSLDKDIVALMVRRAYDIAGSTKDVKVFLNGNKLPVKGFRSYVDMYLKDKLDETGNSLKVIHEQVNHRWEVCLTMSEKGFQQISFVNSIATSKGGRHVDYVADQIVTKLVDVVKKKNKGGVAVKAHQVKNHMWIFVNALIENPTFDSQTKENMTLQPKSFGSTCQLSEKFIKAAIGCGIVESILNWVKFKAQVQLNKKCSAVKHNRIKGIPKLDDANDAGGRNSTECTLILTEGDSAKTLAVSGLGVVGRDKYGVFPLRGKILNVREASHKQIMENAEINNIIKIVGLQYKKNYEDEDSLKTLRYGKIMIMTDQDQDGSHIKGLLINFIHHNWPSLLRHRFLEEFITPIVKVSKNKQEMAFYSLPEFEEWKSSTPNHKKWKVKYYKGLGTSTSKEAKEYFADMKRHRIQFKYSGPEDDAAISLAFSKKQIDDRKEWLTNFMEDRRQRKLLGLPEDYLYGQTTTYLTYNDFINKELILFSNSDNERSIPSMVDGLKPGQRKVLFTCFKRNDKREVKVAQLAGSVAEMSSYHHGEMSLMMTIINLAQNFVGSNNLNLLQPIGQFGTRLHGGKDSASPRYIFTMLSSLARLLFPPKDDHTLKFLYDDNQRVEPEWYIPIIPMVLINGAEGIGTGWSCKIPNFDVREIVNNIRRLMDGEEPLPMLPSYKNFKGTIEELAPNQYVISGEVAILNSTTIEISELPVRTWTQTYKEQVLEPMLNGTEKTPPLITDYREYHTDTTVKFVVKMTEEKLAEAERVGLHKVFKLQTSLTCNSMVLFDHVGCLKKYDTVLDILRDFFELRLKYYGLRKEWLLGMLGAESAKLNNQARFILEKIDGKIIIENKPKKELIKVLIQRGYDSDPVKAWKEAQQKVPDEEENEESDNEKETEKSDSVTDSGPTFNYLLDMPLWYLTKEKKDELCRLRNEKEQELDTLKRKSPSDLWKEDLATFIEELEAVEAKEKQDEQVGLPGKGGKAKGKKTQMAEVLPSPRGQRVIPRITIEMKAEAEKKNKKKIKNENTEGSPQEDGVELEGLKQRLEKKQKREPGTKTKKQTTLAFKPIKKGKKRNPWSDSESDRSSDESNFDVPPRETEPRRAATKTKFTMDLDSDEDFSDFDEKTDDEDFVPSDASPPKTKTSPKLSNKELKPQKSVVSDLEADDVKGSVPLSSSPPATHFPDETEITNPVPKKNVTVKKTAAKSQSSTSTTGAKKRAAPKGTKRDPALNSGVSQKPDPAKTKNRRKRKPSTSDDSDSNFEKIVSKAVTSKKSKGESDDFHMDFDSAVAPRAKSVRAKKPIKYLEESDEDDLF
(§2) The human TOP2A and TOP2B were used to perform DNA relaxation assays. […] The reaction was incubated at 37C for 2 h and stopped by adding 2 µl of 10% SDS and 1 µl of 250 mM of EDTA, followed by the addition of 50 µg/ml of proteinase K at 45 C for 1 h. The reaction was then resolved by electrophoresis on a 1% agarose gel at 80 V and stained with 0.5 µg/ml ethidium bromide for 15 min. DNA bands were visualized using a gel imager (Gel Doc™ EZ System) and quantified using the Image Studio™ Lite Quantification Software.

Another series concerns the target T2, TOP2A (431–1193) (Homo sapiens, UniProt P11388).
T2 construct: was incorporated with TOP2A (431–1193); made in house; host or cells: Escherichia coli BL21 co-expressing biotin ligase
Nature of the series: Bio-Layer Interferometry (BLI) assay. The class given is binding. As for the experimental part:
BLI assays were performed as we previously reported ([33]). The direct and reversible interactions between small molecules and TOP2 protein were quantified by BLI using OctetRED (ForteBio, Bohemia, NY). Human TOP2A (431–1,193) was produced in situ with AviTag technology. The AviTag sequence ([…]) followed by a six-residue glycine serine linker (GSGSGS) was incorporated with TOP2A (431–1193). Escherichia coli BL21 containing both biotin ligase and TOP2A (431–1193) vectors were induced with 0.5 mM isopropyl-β-D-thiogalactopyranoside (IPTG) and biotin at 16C overnight. The bacteria were then lysed by sonication, and the resulting lysate was purified by immobilized metal ion affinity chromatography (IMAC) with nickel nitrilotriacetic acid (NiNTA) resin and cation-exchange chromatography (HiTrap SP). Purified TOP2A (431–1193) (50 μg/ml) was bound to the super-streptavidin sensors over 50 min at room temperature. The sensor was kept in an assay buffer [20 mM N-2-hydroxyethylpiperazine-N0 -2-ethanesulfonic acid (HEPES), 150 mM NaCl, 500 μM tris(2-carboxyethyl) phosphine (TCEP), and 1% dimethylsulfoxide (DMSO)], when small molecules were added. After 200 s, a wash buffer was used to flush the sensor plate for 100 s. BLI signal was recorded throughout the 300 s following the manufacture’s instruction from OctetRED (ForteBio, Bohemia, NY).
(Biolayer interferometry detects binding as a change in optical thickness at a sensor tip.)

A further series relates to K562 xenografts. The series is described as follows: K562 xenografts, intra-tumor polymeric paste. In kind it is in vivo, nude mice (Nu/Nu). The conditions noted are these: single 30 µl paste, 1% T60 or T633, 0.3% etoposide. The procedure:
The polymeric paste was prepared with 50% poly-DL-lactide-coglycolide (PLGA) and 50% PEG 300 (w/w) as we have reported ([57]). […] The density of the paste was determined to be 1.2 g/ml ( ± 3%). One million K562 cells were inoculated subcutaneously in bilateral flanks of nude mice (Nu/Nu). […] Tumor volumes were measured every three days and were calculated by length × width × depth × 0.5236. Mice were euthanized when tumor volumes reached 15% of body weight or weight loss >20% occurred. The remaining mice were euthanized after the control group was euthanized. All animal procedures were under the guidelines of the Canadian Council on Animal Care and were approved by the UBC Animal Care Committee (# A19-0256).

The target of series [2] is T1, TOP2A. Nature of the series: K-DNA decatenation assay. The class given is biochemical. Also on record: full-length human TOP2A and TOP2B protein (TopoGEN and Inspiralis respectively); purchased TopoGEN TG1001 (human TOP2 assay kit). As to conditions: Figure 3A. The procedure:
as §1

The target in series [3] is T1, TOP2A. The series is described as follows: DNA relaxation assay (supercoiled pHOT-1 plasmid). In kind it is biochemical. Set-up: full-length human TOP2A and TOP2B protein (TopoGEN and Inspiralis respectively); purchased TopoGEN TG1001 (human TOP2 assay kit). As to conditions: Figure 3B. As for the experimental part: as §2
A further series concerns salmon sperm DNA. The series is described as follows: Ethidium bromide displacement assay. In kind it is binding. As to conditions: increasing doses; 100 µg/ml DNA, 2 µg/ml ethidium bromide. The procedure: Ethidium bromide displacement assay was performed as previously described ([49], [50]) using Amsacrine (mAMSA) as a positive control. In a 20 µl reaction, compounds were mixed with 100 µg/ml of salmon sperm DNA and 2 µg/ml of ethidium bromide in a fluorescence buffer containing 10 mM HEPES, pH 7.9, 100 mM KCl, 5 mM MgCl2, 0.1 mM EDTA, pH 8.0. Triplicate reactions were subjected to fluorescence emission of 590 nm and excitation of 535 nm. Signals were detected by using the Multimode Microplate Reader, Infinite® F500.

In another series the target is TOP2B (Homo sapiens, UniProt Q02880). Nature of the series: DNA cleavage assay. The conditions noted are these: 200 µM, buffer without ATP. In kind it is biochemical. Set-up: full-length human TOP2A and TOP2B protein (TopoGEN and Inspiralis respectively); purchased Inspiralis HTB205. As for the experimental part: (§3) The reactions were incubated in 37C for 30 min and stopped by adding 2 µl of 10% SDS and 1 µl of 250 mM of EDTA, followed by the addition of 50 µg/ml of proteinase K at 45C for 30 min. The reaction was then resolved by electrophoresis on a 1% agarose gel containing […] ethidium bromide in TAE buffer at 60 V. DNA bands were visualized using a gel imager (Gel Doc™ EZ System) and quantified by using the Image Studio™ Lite Quantification Software.
Chain of TOP2B (Q02880 whole entry): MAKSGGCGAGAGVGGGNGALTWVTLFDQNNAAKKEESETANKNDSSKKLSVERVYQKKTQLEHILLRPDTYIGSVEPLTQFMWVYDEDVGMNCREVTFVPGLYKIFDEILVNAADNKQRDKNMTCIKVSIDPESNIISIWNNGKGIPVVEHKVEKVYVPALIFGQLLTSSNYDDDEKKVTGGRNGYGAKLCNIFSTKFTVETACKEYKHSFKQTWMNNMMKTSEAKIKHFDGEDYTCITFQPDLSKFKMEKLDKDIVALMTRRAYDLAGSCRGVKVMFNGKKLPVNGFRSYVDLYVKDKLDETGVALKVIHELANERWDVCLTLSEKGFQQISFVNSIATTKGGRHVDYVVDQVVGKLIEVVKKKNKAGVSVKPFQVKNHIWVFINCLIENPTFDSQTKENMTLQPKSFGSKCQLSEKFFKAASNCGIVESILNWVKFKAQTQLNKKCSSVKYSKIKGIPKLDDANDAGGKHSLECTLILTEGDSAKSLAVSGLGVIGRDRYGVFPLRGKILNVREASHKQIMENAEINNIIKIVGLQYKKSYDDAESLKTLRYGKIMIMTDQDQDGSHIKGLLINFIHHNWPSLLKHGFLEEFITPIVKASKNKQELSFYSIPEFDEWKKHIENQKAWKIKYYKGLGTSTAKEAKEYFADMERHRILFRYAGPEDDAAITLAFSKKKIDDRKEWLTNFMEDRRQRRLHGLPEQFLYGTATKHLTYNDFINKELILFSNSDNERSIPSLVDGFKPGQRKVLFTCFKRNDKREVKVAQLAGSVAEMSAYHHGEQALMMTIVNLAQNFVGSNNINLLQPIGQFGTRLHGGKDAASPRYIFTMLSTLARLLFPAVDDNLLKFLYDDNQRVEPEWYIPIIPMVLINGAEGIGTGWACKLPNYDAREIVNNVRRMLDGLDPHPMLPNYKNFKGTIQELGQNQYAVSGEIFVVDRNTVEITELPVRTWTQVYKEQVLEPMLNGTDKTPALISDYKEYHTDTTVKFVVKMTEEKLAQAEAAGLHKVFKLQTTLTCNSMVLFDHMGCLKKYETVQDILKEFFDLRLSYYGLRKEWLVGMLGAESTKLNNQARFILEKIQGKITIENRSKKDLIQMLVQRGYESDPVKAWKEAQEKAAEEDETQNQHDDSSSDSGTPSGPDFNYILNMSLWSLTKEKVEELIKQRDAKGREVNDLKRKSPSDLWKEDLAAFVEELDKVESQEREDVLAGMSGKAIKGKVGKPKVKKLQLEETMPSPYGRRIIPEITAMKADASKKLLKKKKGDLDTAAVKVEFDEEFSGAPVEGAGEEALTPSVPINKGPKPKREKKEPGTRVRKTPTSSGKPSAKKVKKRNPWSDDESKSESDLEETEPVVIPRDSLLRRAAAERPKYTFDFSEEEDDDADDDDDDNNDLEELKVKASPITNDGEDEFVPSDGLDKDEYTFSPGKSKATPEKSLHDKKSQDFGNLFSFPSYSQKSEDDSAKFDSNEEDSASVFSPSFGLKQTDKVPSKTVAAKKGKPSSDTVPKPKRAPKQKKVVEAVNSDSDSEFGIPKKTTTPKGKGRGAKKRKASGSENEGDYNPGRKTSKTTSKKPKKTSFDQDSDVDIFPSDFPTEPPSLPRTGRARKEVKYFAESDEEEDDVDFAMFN

Series [4] addresses T1, TOP2A. The series is described as follows: DNA cleavage assay. In kind it is biochemical. Set-up: full-length human TOP2A and TOP2B protein (TopoGEN and Inspiralis respectively); purchased TopoGEN TG1001 (human TOP2 assay kit). The conditions noted are these: 200 µM, buffer without ATP. As for the experimental part: as §3
The target in another series is TOP2A full-length (Homo sapiens, UniProt P11388 1-1531). The series is described as follows: EMSA; 2 uM protein, 300 nM DNA, 3 mM Mg2+, no inhibitor; 20 mM HEPES-NaOH pH 7.4, 2 mM DTT, 3 mM MgCl2, 0.05% NP-40, protease inhibitors, 0.1 ug poly[dI:dC] in 20 ul, 30 min at 37 C; 4% native gel in 0.5x TBE. As to conditions: protein: commercial; label: IRDye700; blunt; self-complementary strand, 2 copies. For orientation: In EMSA bound probe runs differently from free probe, usually more slowly.
Chain of TOP2A full-length (P11388 whole entry): as the sequence (P11388 whole entry) above

In a further series the target is TOP2B full-length (Homo sapiens, UniProt Q02880 1-1626). The description is as above. The conditions noted are these: protein: commercial; label: IRDye700; blunt; self-complementary strand, 2 copies.
Chain of TOP2B full-length (Q02880 whole entry): as the sequence (Q02880 whole entry) above
A further series has as its target TOP2A (431-1193) (Homo sapiens, UniProt P11388 431-1193). The series is described as follows: EMSA; 30 uM protein, 300 nM DNA, 3 mM Mg2+, no inhibitor; 20 mM HEPES-NaOH pH 7.4, 2 mM DTT, 3 mM MgCl2, 0.05% NP-40, protease inhibitors, 0.1 ug poly[dI:dC] in 20 ul, 30 min at 37 C; 4% native gel in 0.5x TBE. The conditions noted are these: protein: recombinant; (NiNTA purified); label: IRDye700; blunt; self-complementary strand, 2 copies.

T2 sequence (P11388 431-1193): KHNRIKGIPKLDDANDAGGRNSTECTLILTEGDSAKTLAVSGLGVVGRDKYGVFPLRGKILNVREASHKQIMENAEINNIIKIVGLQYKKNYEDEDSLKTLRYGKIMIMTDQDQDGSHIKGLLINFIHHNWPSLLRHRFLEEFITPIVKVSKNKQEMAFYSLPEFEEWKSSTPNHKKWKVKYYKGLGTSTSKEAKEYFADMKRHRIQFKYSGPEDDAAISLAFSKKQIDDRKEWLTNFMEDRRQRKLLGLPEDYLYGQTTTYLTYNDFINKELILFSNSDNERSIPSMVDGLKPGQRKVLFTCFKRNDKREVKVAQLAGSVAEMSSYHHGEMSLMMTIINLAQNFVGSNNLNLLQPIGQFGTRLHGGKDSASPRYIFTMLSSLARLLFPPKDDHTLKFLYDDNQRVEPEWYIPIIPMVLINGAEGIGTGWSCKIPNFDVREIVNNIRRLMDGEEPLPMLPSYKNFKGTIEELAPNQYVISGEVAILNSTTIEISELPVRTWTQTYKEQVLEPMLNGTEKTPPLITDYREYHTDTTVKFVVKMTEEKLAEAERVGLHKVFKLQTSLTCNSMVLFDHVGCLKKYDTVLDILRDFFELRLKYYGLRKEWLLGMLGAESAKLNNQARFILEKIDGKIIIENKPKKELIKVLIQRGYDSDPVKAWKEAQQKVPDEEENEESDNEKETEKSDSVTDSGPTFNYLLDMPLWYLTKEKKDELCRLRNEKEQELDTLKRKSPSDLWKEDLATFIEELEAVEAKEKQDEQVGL
Chain of TOP2A (431-1193) (P11388 431-1193): as above

Regarding `O=C(Nc1ccc(Nc2ccccc2)cc1)c1ccnnc1S` [T635], the “Activity on TOP2” value on TOP2A [1] is “nearly inactive”.
Same read-out and setting: the entry for `CN(C(=O)c1ccc[nH]c1=S)c1ccc(Nc2ccccc2)cc1` [T627] is “complete abolishment of T60 activity”.
Take `O=C(Nc1ccc(Nc2ccc(O)cc2)cc1)c1ccc[nH]c1=S` [T625]: the “Activity on TOP2” value at TOP2A [1] was “increased activity”.
Same read-out and setting: the entry for `O=C(Nc1ccc(Nc2ccccc2)cc1)c1ccccc1S` [T609] is “most active compound”.
On to `O=C(Nc1ccc(Nc2ccccc2O)cc1)c1ccc[nH]c1=S` [T620], for which the “Activity on TOP2” value at TOP2A [1] was “increased activity”.
One may read the Kd as the concentration at which binding is half-saturated. Regarding `Cc1cc(Nc2ccccc2)ccc1NC(=O)c1ccc[nH]c1=S` [T633], the “Hill slope, BLI” value at TOP2A (431–1193) (dose-response 0-50 μM) came out at 5±1.5. For the same molecule, the Kd at TOP2A (431–1193) (dose-response 0-50 μM, estimated) is 35 ± 3 µM. For the same molecule, the “Binding to TOP2A (431–1193), BLI curves” value on TOP2A (431–1193) (increasing concentrations) is “reversible and dose-response binding”. The “Tumor growth at the end of two weeks” value in the series with K562 xenografts is “strongly inhibit tumor growth comparable to etoposide”. For the same molecule, on TOP2A [1], the “Activity on TOP2” value is listed as “stronger activities than T60”.
On to `O=C(Nc1ccc(Nc2ccccc2)cc1)c1c[nH]cnc1=S` [T636], for which the “Activity on TOP2” value on TOP2A [1] was “nearly inactive”.
With ICRF193 [reference compound], on TOP2A [2], the “Inhibition of TOP2A mediated K-DNA decatenation” value is listed as “inhibited”. For the same molecule, the “Inhibition of TOP2A activity changing supercoiled into relaxed plasmid DNA” value at TOP2A [3] is listed as “inhibited”.
As to `O=C(Nc1ccc(Nc2ccccc2)cc1O)c1ccc[nH]c1=S` [T634], the “Activity on TOP2” value at TOP2A [1] is given as “stronger activities than T60”.
On the same count and under the same terms, the entry for `Cc1cc(NC(=O)c2ccc[nH]c2=S)ccc1Nc1ccccc1` [T630] is “stronger activities than T60”.
Consider `COc1cc(NS(C)(=O)=O)ccc1Nc1c2ccccc2nc2ccccc12` [m-AMSA, Amsacrine, reference compound], for which the “Fluorescence of ethidium bromide/DNA complex (DNA intercalation)” value in the series with salmon sperm DNA was “reduced”.
On to `COc1cc([C@@H]2c3cc4c(cc3[C@@H](O[C@@H]3O[C@@H]5CO[C@@H](C)O[C@H]5[C@H](O)[C@H]3O)[C@H]3COC(=O)[C@H]23)OCO4)cc(OC)c1O` [etoposide], for which the “Tumor volumes versus vehicle group at the end of four weeks” value in the series with K562 xenografts was “statistically lower than the vehicle group”. For the same molecule, at TOP2B, the “Induction of linear plasmid (DNA cleavage) with TOP2B” value is “induced detectable linear plasmid”. Also, the “Induction of linear plasmid (DNA cleavage) with TOP2A” value on TOP2A [4] is listed as “induced detectable linear plasmid”.

B1: 5ZRF (dsDNA)
DNA 1: AGCCGAGCTGCAGCTCGGCT
DNA 2: AGCCGAGCTGCAGCTCGGCT
Turning to B1, the binding result with TOP2A full-length, with TOP2B full-length and with TOP2A (431-1193) was “binds” throughout.
